# Species: Rattus norvegicus
# Assay: DrugMatrix - Regimen: Daily Repeat
# Format: toxicity, organism-based, Sprague-Dawley
# Design: regimen Daily Repeat, gender Male, age 6-8 weeks
# Details: in vivo, po, route oral GAVAGE, […]; for ABSOLUTE BASOPHIL / ABSOLUTE EOSINOPHIL / ABSOLUTE LYMPHOCYTE / ABSOLUTE MONOCYTE / ABSOLUTE SEGMENTED NEUTROPHIL / BASOPHIL / EOSINOPHIL / ERYTHROCYTE COUNT / HEMATOCRIT / HEMOGLOBIN / LEUKOCYTE COUNT / LYMPHOCYTE / MEAN CORPUSCULAR HEMOGLOBIN / MEAN CORPUSCULAR HEMOGLOBIN CONCENTRATION / MONOCYTE / NEUTROPHIL / NUCLEATED RED BLOOD CELLS / PLATELET COUNT: tissue Blood; for ALANINE AMINOTRANSFERASE / ALBUMIN / ALKALINE PHOSPHATASE / ASPARTATE AMINOTRANSFERASE / BLOOD UREA NITROGEN / CARBON DIOXIDE / CHLORIDE / CHOLESTEROL / CREATINE PHOSPHOKINASE / CREATININE / GLUCOSE / LACTATE DEHYDROGENASE / LIPASE / PHOSPHORUS / POTASSIUM / SODIUM / TOTAL BILIRUBIN / TOTAL PROTEIN / URIC ACID: tissue Plasma
# [1] = 0 mg/kg, 72 h, dose level Control, time 3 day
# [2] = 0 mg/kg, 120 h, dose level Control, time 5 day
# [3] = 0.2 mg/kg, 72 h, dose level Low, time 3 day
smiles,measurement,setting,value
CCOC(=O)C1=C(COCCN)NC(C)=C(C(=O)OC)C1c1ccccc1Cl (stereo not given) [AMLODIPINE],ABSOLUTE BASOPHIL,[1],0 CELLS/uL
same,ABSOLUTE EOSINOPHIL,[1],70.67 CELLS/uL
same,ABSOLUTE LYMPHOCYTE,[1],12761.5 CELLS/uL
same,ABSOLUTE MONOCYTE,[1],214.17 CELLS/uL
same,ABSOLUTE SEGMENTED NEUTROPHIL,[1],987 CELLS/uL
same,BASOPHIL,[1],0%
same,EOSINOPHIL,[1],0.5%
same,ERYTHROCYTE COUNT,[1],5.61 x10E6/uL
same,HEMATOCRIT,[1],35.22%
same,HEMOGLOBIN,[1],13.57 G/DL
same,LEUKOCYTE COUNT,[1],14.03 x10E3/uL
same,LYMPHOCYTE,[1],91%
same,MEAN CORPUSCULAR HEMOGLOBIN,[1],24.25 pg
same,MEAN CORPUSCULAR HEMOGLOBIN CONCENTRATION,[1],38.52 G/DL
same,MONOCYTE,[1],1.5%
same,NEUTROPHIL,[1],7%
same,NUCLEATED RED BLOOD CELLS,[1],0 /100WBC
same,PLATELET COUNT,[1],997.5 x10E3/uL
same,ALANINE AMINOTRANSFERASE,[1],66.5 u/L
same,ALBUMIN,[1],3.98 G/DL
same,ALKALINE PHOSPHATASE,[1],350 u/L
same,ASPARTATE AMINOTRANSFERASE,[1],83.83 u/L
same,BLOOD UREA NITROGEN,[1],12.33 mg/dL
same,CARBON DIOXIDE,[1],30.33 mmol/L
same,CHLORIDE,[1],100 MEQ/L
same,CHOLESTEROL,[1],75 mg/dL
same,CREATINE PHOSPHOKINASE,[1],200 u/L
same,CREATININE,[1],0.17 mg/dL
same,GLUCOSE,[1],170 mg/dL
same,LACTATE DEHYDROGENASE,[1],89.33 u/L
same,LIPASE,[1],10.33 u/L
same,PHOSPHORUS,[1],10.88 mg/dL
same,POTASSIUM,[1],6.13 MEQ/L
same,SODIUM,[1],140.53 MEQ/L
same,TOTAL BILIRUBIN,[1],0.2 mg/dL
same,TOTAL PROTEIN,[1],5.67 G/DL
same,URIC ACID,[1],1.6 mg/dL
same,ABSOLUTE BASOPHIL,[2],0 CELLS/uL
same,ABSOLUTE EOSINOPHIL,[2],0 CELLS/uL
same,ABSOLUTE LYMPHOCYTE,[2],9526.67 CELLS/uL
same,ABSOLUTE MONOCYTE,[2],134.17 CELLS/uL
same,ABSOLUTE SEGMENTED NEUTROPHIL,[2],922.5 CELLS/uL
same,BASOPHIL,[2],0%
same,EOSINOPHIL,[2],0%
same,ERYTHROCYTE COUNT,[2],5.58 x10E6/uL
same,HEMATOCRIT,[2],34.78%
same,HEMOGLOBIN,[2],13.5 G/DL
same,LEUKOCYTE COUNT,[2],10.58 x10E3/uL
same,LYMPHOCYTE,[2],90.17%
same,MEAN CORPUSCULAR HEMOGLOBIN,[2],24.27 pg
same,MEAN CORPUSCULAR HEMOGLOBIN CONCENTRATION,[2],38.82 G/DL
same,MONOCYTE,[2],1.17%
same,NEUTROPHIL,[2],8.67%
same,NUCLEATED RED BLOOD CELLS,[2],0.17 /100WBC
same,PLATELET COUNT,[2],807.17 x10E3/uL
same,ALANINE AMINOTRANSFERASE,[2],66.83 u/L
same,ALBUMIN,[2],3.73 G/DL
same,ALKALINE PHOSPHATASE,[2],286.17 u/L
same,ASPARTATE AMINOTRANSFERASE,[2],142.33 u/L
same,BLOOD UREA NITROGEN,[2],14.67 mg/dL
same,CARBON DIOXIDE,[2],25.5 mmol/L
same,CHLORIDE,[2],89.17 MEQ/L
same,CHOLESTEROL,[2],75.17 mg/dL
same,CREATINE PHOSPHOKINASE,[2],310.67 u/L
same,CREATININE,[2],0.2 mg/dL
same,GLUCOSE,[2],153 mg/dL
same,LACTATE DEHYDROGENASE,[2],1594 u/L
same,LIPASE,[2],14.83 u/L
same,PHOSPHORUS,[2],11.28 mg/dL
same,POTASSIUM,[2],8.46 MEQ/L
same,SODIUM,[2],126.88 MEQ/L
same,TOTAL BILIRUBIN,[2],0.37 mg/dL
same,TOTAL PROTEIN,[2],5.53 G/DL
same,URIC ACID,[2],1.52 mg/dL
same,ABSOLUTE BASOPHIL,[3],0 CELLS/uL
same,ABSOLUTE EOSINOPHIL,[3],0 CELLS/uL
same,ABSOLUTE LYMPHOCYTE,[3],9376 CELLS/uL
same,ABSOLUTE MONOCYTE,[3],215 CELLS/uL
same,ABSOLUTE SEGMENTED NEUTROPHIL,[3],975.67 CELLS/uL
same,BASOPHIL,[3],0%
same,EOSINOPHIL,[3],0%
same,ERYTHROCYTE COUNT,[3],5.44 x10E6/uL
same,HEMATOCRIT,[3],34.4%
same,HEMOGLOBIN,[3],13.67 G/DL
same,LEUKOCYTE COUNT,[3],10.57 x10E3/uL
same,LYMPHOCYTE,[3],88.67%
same,MEAN CORPUSCULAR HEMOGLOBIN,[3],25.13 pg
same,MEAN CORPUSCULAR HEMOGLOBIN CONCENTRATION,[3],39.73 G/DL
same,MONOCYTE,[3],2%
same,NEUTROPHIL,[3],9.33%
same,NUCLEATED RED BLOOD CELLS,[3],0 /100WBC
same,PLATELET COUNT,[3],1115 x10E3/uL
same,ALANINE AMINOTRANSFERASE,[3],74.33 u/L
same,ALBUMIN,[3],4 G/DL
same,ALKALINE PHOSPHATASE,[3],391 u/L
same,ASPARTATE AMINOTRANSFERASE,[3],107.33 u/L
same,BLOOD UREA NITROGEN,[3],11 mg/dL
same,CARBON DIOXIDE,[3],28.67 mmol/L
same,CHLORIDE,[3],100.67 MEQ/L
same,CHOLESTEROL,[3],69.67 mg/dL
same,CREATINE PHOSPHOKINASE,[3],1227 u/L
same,CREATININE,[3],0.14 mg/dL
same,GLUCOSE,[3],178 mg/dL
same,LACTATE DEHYDROGENASE,[3],183 u/L
same,LIPASE,[3],11 u/L
same,PHOSPHORUS,[3],10.73 mg/dL
same,POTASSIUM,[3],5.94 MEQ/L
same,SODIUM,[3],141 MEQ/L
same,TOTAL BILIRUBIN,[3],0.2 mg/dL
same,TOTAL PROTEIN,[3],5.73 G/DL

# From ChEMBL document CHEMBL3885881, “DrugMatrix”
